The numbers were not newly measured in patent publication US8133908B2, “Heteroaryl derivatives of N-{[(1S,4S,6S)-3-(2-pyridinylcarbonyl)-3-azabicyclo[4.1.0]hept-4-yl]methyl}-2-amine” (Glaxo Group Limited, priority 2008, dated 2012), which cites them from elsewhere.

No end group written: not given here.

Data set [1] deals with orexin-A receptor(s). The following applies: central administration, freely-feeding rats, 4 hour time period.
The subject of data set [2] is orexin receptors. Particulars: rats, central administration at the onset of the normal sleep period.
The test system of data set [3] is orexin receptor. The following applies: rats.

Consider “orexin-A: ligand for the orexin-1 receptor; an agonist of the orexin receptors (QPLPDCCRQKTCSCRLYELLHGAGNHAAGILTL; ends and bridges not checked; cysteine pairing not given here; UniProt O43612 34-66, looked up)”, for which, in data set [1], the “increase of food intake over control rats receiving vehicle” value is on record as “approximately four-fold”. Also, the arousal result in data set [2] is reported as “dose-related increase in arousal”.

Take `Cc1nc2ccc(NC(=O)Nc3ccnc4cccnc34)cc2o1` [SB334867]: in data set [3], the hedonic eating entry is listed as “potently reduced” and the high-fat pellet self-administration result is listed as “attenuated”.
